Here are results for three compounds from article PMC5770468, “Cardiac glycoside/aglycones inhibit HIV-1 gene expression by a mechanism requiring MEK1/2-ERK1/2 signaling” (Scientific Reports, 2018).

One data set concerns HIV-1 gene expression. The data set can be described thus: HIV-1 gene expression in CD4+ T-cell line 24ST1NLESG, p24CA ELISA. The settings on record: PMA induced, 24 h, p24CA ELISA of supernatants. The class given is cell-based, HIV-1 (pNL4-3). As for the experimental part:
Drug/compounds were tested for effects on HIV-1 gene expression using inducible Tet-ON HIV-1 cell lines [HeLa rtTA-HIV-ΔMls or rtTA-HIV(Gag-GFP)] containing a HIV-1 (LAI) provirus activatable by Dox or tetracycline transactivator (tTA)[69]. The rtTA-HIV-ΔMls provirus was modified and used as previously reported[9]–[11],[70]. The rtTA-HIV(Gag-GFP) provirus was generated by deletion of the PR and RT coding regions within pol and insertion of GFP to the 3′ of gag, creating GFP fused to the C-terminal of Gag. After 4 h of drug/compound treatment, HIV-1 gene expression was activated with Dox (2 μg/mL) or tTA (described below). Equal concentrations of DMSO were present in each experiment. After ~20 h, cells and media were harvested to monitor the effects of drug/compound treatments as described below. HIV-1 gene expression was quantified via p24^CA ELISA or monitoring Gag-GFP fluorescence in cells as described below. In parallel, cell viability of treatments were assessed by XTT assay (Sigma-Aldrich, #TOX2). […]
treatment of 24ST1NLESG cells (n ≥ 4, mean, s.e.m.). […] Cell lysates were analyzed by western blot with antibodies specific for (c) HIV-1 structural protein, Gag, and (d) viral regulatory factor, Tat. […]
(In an ELISA, binding on a coated surface is turned into a signal by an enzyme label.)

The next data set relates to HeLa rtTA-HIV-ΔMls cells. In kind it is cell-based, human. The following applies: XTT. As to the method:
Drug/compounds were tested for effects on HIV-1 gene expression using inducible Tet-ON HIV-1 cell lines [HeLa rtTA-HIV-ΔMls or rtTA-HIV(Gag-GFP)] containing a HIV-1 (LAI) provirus activatable by Dox or tetracycline transactivator (tTA)[69]. The rtTA-HIV-ΔMls provirus was modified and used as previously reported[9]–[11],[70]. The rtTA-HIV(Gag-GFP) provirus was generated by deletion of the PR and RT coding regions within pol and insertion of GFP to the 3′ of gag, creating GFP fused to the C-terminal of Gag. After 4 h of drug/compound treatment, HIV-1 gene expression was activated with Dox (2 μg/mL) or tTA (described below). Equal concentrations of DMSO were present in each experiment. After ~20 h, cells and media were harvested to monitor the effects of drug/compound treatments as described below. HIV-1 gene expression was quantified via p24^CA ELISA or monitoring Gag-GFP fluorescence in cells as described below. In parallel, cell viability of treatments were assessed by XTT assay (Sigma-Aldrich, #TOX2). For confirmatory tests, the CD4^+ HIV-1 T-cell line, 24ST1NLESG, from J. Dougherty, was treated with drug/compounds and HIV-1 gene expression activated by 1.8 µM of phorbol 12-myristate 13-acetate (PMA) as previously described[10],[11],[71].
Supplementary Figure S2. CSs inhibit HIV-1 gene expression in a dose-dependent manner. […]

`C[C@H]1O[C@@H](O[C@H]2[C@@H](O)C[C@H](O[C@H]3[C@@H](O)C[C@H](O[C@H]4CC[C@@]5(C)[C@H](CC[C@@H]6[C@@H]5CC[C@]5(C)[C@@H](C7=CC(=O)OC7)CC[C@]65O)C4)O[C@@H]3C)O[C@@H]2C)C[C@H](O)[C@@H]1O` [Digitoxin]: in the data set on HIV-1 gene expression, the “HIV-1 gene expression in 24ST1NLESG cells” value is “Dose-dependent inhibition”.
As to `C[C@]12CC[C@H](O)C[C@H]1CC[C@@H]1[C@@H]2C[C@@H](O)[C@]2(C)[C@@H](C3=CC(=O)OC3)CC[C@]12O` [Digoxigenin], the “CC20 (cytotoxic effects ≥20%)” value with HeLa rtTA-HIV-ΔMls cells is given as 600 nM.
For `C[C@]12CC[C@H](O)C[C@H]1CC[C@@H]1[C@@H]2CC[C@]2(C)[C@@H](C3=CC(=O)OC3)CC[C@]12O` [Digitoxigenin], the toxicity result in the data set on HeLa rtTA-HIV-ΔMls cells (at 1000 nM) is “no toxicity”.
